Assay results as given in ChEMBL document CHEMBL4507278 (2021).

Assays:
[1] = molecular target: Leukocyte tyrosine kinase receptor (Homo sapiens) (UniProt P29376); details: Compound concentration 1000.0 nM
[2] = molecular target: RAC-beta serine/threonine-protein kinase (Homo sapiens) (UniProt P31751); details: Compound concentration 1000.0 nM
[3] = molecular target: Myosin light chain kinase (Homo sapiens) (UniProt Q32MK0); details: Compound concentration 1000.0 nM
[4] = molecular target: 5-hydroxytryptamine receptor 6 (Homo sapiens) (UniProt P50406); details: Compound concentration 10.0 uM
[5] = molecular target: Serine/threonine-protein kinase/endoribonuclease IRE1 (Homo sapiens) (UniProt O75460); details: Compound concentration 1000.0 nM
[6] = molecular target: Ephrin type-A receptor 7 (Homo sapiens) (UniProt Q15375); details: Compound concentration 1000.0 nM
Ephrin type-A receptor 7 (Homo sapiens), sequence (Q15375 28-998 limits assumed): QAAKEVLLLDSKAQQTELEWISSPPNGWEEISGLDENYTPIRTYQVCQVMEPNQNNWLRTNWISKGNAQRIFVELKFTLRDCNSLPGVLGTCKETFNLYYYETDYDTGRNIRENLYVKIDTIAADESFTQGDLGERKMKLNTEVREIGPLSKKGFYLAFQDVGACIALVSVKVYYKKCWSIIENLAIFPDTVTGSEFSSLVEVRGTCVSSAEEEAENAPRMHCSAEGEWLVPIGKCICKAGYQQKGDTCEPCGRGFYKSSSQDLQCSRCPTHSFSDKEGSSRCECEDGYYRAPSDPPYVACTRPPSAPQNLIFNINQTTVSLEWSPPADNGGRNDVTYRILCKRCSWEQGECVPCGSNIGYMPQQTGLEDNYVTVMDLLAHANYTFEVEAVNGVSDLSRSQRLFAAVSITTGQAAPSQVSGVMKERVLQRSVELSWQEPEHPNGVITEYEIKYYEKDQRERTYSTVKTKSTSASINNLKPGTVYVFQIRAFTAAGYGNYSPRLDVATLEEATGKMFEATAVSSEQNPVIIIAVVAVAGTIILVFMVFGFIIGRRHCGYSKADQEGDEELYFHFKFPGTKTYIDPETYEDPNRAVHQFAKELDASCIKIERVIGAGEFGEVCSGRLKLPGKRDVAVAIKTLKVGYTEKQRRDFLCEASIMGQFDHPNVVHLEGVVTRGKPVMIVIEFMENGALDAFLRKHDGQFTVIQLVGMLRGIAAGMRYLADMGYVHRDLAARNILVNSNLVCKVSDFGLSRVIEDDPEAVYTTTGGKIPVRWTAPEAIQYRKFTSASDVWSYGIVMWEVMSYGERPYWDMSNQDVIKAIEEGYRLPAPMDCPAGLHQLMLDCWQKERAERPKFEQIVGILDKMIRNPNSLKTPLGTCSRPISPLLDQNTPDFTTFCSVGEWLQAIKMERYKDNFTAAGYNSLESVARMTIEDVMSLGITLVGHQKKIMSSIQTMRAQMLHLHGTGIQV

[7] = system: Tyrosine-protein kinase ABL1 (Homo sapiens), P00519 [M351T]; details: Compound concentration 1000.0 nM
[8] = molecular target: Dual specificity mitogen-activated protein kinase kinase 4 (Homo sapiens) (UniProt P45985); details: Compound concentration 1000.0 nM
[9] = molecular target: Muscarinic acetylcholine receptor M1 (Homo sapiens) (UniProt P11229); test: M1/HU Eurofins-Panlabs selectivity data (BI); details: Compound concentration 10.0 uM
[10] = molecular target: Sodium-dependent noradrenaline transporter (Homo sapiens) (UniProt P23975); test: NETRANS/H Eurofins-Panlabs selectivity data (BI); details: Compound concentration 10.0 uM
[11] = molecular target: Prostaglandin E2 receptor EP4 subtype (Homo sapiens) (UniProt P35408); test: PEP4_HU Eurofins-Panlabs selectivity data (BI); details: Compound concentration 10.0 uM
Prostaglandin E2 receptor EP4 subtype (Homo sapiens), sequence (P35408 whole entry): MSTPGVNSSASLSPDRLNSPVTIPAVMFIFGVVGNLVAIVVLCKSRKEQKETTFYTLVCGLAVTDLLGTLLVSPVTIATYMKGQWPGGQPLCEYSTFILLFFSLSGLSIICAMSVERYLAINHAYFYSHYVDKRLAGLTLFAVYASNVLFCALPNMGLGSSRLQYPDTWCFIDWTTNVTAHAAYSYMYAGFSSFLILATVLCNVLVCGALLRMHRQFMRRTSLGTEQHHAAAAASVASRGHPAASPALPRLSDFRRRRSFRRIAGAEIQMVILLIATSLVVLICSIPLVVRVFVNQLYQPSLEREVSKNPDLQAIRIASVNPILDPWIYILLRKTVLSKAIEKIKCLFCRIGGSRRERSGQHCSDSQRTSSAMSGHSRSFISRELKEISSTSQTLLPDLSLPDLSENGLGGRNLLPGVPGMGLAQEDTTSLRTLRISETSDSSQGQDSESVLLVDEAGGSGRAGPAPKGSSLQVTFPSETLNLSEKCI

[12] = molecular target: P2X purinoceptor (Oryctolagus cuniculus) (UniProt G1U3D6); test: P2X/RB Eurofins-Panlabs selectivity data (BI); details: Compound concentration 10.0 uM
[13] = molecular target: Histamine H1 receptor (Homo sapiens) (UniProt P35367); test: H1/H Eurofins-Panlabs selectivity data (BI); details: Compound concentration 10.0 uM
Histamine H1 receptor (Homo sapiens), sequence (P35367 whole entry): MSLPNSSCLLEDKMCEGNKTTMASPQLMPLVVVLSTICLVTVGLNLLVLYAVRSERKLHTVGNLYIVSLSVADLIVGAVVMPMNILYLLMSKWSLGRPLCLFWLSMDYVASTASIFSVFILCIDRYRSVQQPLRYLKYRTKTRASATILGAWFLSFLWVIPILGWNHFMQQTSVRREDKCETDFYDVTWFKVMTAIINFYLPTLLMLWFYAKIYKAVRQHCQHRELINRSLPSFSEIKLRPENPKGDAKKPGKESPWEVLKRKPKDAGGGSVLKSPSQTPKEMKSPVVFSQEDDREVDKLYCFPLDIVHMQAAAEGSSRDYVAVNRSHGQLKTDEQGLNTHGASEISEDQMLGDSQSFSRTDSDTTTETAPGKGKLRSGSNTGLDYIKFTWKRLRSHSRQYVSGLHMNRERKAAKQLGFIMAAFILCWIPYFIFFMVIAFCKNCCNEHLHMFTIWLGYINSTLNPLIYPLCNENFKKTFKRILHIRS

[14] = molecular target: Voltage-dependent N-type calcium channel subunit alpha-1B (Rattus norvegicus) (UniProt Q02294); test: CA+/N/RA Eurofins-Panlabs selectivity data (BI); details: Compound concentration 10.0 uM
[15] = molecular target: Sodium- and chloride-dependent GABA transporter 1 (Rattus norvegicus) (UniProt P23978); test: GABATRANS/RA Eurofins-Panlabs selectivity data (BI); details: Compound concentration 10.0 uM
[16] = molecular target: Endothelin receptor type B (Homo sapiens) (UniProt P24530); test: ETB/HUM Eurofins-Panlabs selectivity data (BI); details: Compound concentration 10.0 uM
[17] = molecular target: Interleukin-1 receptor type 1 (Mus musculus) (UniProt P13504); test: IL-1 Eurofins-Panlabs selectivity data (BI); details: Compound concentration 10.0 uM
[18] = molecular target: Beta-1 adrenergic receptor (Homo sapiens, UniProt P08588); test: BETA1/HU Eurofins-Panlabs selectivity data (BI); details: Compound concentration 10.0 uM
Beta-1 adrenergic receptor, sequence (P08588 whole entry, looked up): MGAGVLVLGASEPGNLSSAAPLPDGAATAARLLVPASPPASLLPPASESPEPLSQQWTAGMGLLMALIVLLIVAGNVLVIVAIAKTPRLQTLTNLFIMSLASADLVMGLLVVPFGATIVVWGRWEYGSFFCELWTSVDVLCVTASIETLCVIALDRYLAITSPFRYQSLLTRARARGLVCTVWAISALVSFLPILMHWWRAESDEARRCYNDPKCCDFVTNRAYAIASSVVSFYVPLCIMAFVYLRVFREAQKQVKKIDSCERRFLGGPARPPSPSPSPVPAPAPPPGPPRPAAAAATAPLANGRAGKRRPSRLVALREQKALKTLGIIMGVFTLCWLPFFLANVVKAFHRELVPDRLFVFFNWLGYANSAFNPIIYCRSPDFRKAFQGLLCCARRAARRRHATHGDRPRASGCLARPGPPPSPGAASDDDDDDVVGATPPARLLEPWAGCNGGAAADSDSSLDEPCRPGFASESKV

[19] = molecular target: P2Y purinoceptor 1 (Rattus norvegicus) (UniProt P49651); test: P2Y/RAT Eurofins-Panlabs selectivity data (BI); details: Compound concentration 10.0 uM
[20] = molecular target: Adenosine receptor A3 (Homo sapiens) (UniProt P0DMS8); test: A3/H Eurofins-Panlabs selectivity data (BI); details: Compound concentration 10.0 uM
Adenosine receptor A3 (Homo sapiens), sequence (P0DMS8 whole entry): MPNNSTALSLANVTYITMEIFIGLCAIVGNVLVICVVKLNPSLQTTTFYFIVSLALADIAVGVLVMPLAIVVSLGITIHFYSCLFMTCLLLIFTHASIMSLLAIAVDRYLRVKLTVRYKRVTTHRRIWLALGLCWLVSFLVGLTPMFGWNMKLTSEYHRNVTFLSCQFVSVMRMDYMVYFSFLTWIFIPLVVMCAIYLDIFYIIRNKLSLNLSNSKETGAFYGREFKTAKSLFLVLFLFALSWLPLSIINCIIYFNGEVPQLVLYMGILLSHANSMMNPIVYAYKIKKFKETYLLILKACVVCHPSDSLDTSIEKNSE

[21] = molecular target: Histamine H2 receptor (Homo sapiens) (UniProt P25021); test: H2/H Eurofins-Panlabs selectivity data (BI); details: Compound concentration 10.0 uM
Histamine H2 receptor (Homo sapiens), sequence (P25021 whole entry): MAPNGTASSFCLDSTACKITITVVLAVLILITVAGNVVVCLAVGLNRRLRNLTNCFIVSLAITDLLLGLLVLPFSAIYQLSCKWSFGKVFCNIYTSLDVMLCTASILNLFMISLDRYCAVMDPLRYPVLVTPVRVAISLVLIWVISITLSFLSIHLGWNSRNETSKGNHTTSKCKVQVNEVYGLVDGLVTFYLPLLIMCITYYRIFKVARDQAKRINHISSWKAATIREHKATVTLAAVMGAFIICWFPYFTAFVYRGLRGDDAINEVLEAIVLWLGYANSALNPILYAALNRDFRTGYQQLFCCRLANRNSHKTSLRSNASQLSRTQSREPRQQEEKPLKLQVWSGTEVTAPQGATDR

[22] = molecular target: Sodium-dependent dopamine transporter (Homo sapiens) (UniProt Q01959); test: DATRANS/H Eurofins-Panlabs selectivity data (BI); details: Compound concentration 10.0 uM
Sodium-dependent dopamine transporter (Homo sapiens), sequence (Q01959 whole entry): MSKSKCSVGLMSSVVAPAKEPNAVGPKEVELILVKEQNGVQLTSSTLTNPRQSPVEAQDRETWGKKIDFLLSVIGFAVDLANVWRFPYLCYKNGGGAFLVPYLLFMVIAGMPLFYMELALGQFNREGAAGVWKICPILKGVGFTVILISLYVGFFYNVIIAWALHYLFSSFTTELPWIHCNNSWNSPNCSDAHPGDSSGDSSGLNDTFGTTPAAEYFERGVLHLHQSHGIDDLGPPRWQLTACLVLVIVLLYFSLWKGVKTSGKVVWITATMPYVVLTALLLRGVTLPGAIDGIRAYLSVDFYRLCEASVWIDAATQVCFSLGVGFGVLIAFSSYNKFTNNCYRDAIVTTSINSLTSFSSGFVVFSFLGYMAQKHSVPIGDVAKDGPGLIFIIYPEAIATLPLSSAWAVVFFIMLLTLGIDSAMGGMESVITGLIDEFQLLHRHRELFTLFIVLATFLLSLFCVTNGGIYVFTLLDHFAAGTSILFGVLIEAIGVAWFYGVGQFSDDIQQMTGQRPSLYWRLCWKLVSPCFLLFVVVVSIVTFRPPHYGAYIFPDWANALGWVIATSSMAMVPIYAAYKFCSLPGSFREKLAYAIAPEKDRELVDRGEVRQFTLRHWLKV

[23] = molecular target: Melatonin receptor type 1A (Homo sapiens) (UniProt P48039); test: MT1/H Eurofins-Panlabs selectivity data (BI); details: Compound concentration 10.0 uM
[24] = molecular target: Androgen receptor (Rattus norvegicus) (UniProt P15207); test: TESTOST/RA Eurofins-Panlabs selectivity data (BI); details: Compound concentration 10.0 uM
hERG (KCNH2) = hERG (KCNH2) (Homo sapiens, UniProt Q12809); test: K+/HERG Eurofins-Panlabs selectivity data (BI); details: compound concentration 10 uM, read-out: % Ctrl
[25] = molecular target: D(3) dopamine receptor (Homo sapiens) (UniProt P35462); test: D3/HU Eurofins-Panlabs selectivity data (BI); details: Compound concentration 10.0 uM
[26] = molecular target: Sigma non-opioid intracellular receptor 1 (Homo sapiens) (UniProt Q99720); test: SIGMA1/HU Eurofins-Panlabs selectivity data (BI); details: Compound concentration 10.0 uM
[27] = molecular target: Epidermal growth factor receptor (Homo sapiens) (UniProt P00533); test: EGF/HU Eurofins-Panlabs selectivity data (BI); details: Compound concentration 10.0 uM
[28] = molecular target: Neuropeptide Y receptor type 2 (Homo sapiens) (UniProt P49146); test: Y2/HU Eurofins-Panlabs selectivity data (BI); details: Compound concentration 10.0 uM
[29] = molecular target: Estrogen receptor (Homo sapiens) (UniProt P03372); test: ERALPHA/H Eurofins-Panlabs selectivity data (BI); details: Compound concentration 10.0 uM
Estrogen receptor (Homo sapiens), sequence (P03372 whole entry): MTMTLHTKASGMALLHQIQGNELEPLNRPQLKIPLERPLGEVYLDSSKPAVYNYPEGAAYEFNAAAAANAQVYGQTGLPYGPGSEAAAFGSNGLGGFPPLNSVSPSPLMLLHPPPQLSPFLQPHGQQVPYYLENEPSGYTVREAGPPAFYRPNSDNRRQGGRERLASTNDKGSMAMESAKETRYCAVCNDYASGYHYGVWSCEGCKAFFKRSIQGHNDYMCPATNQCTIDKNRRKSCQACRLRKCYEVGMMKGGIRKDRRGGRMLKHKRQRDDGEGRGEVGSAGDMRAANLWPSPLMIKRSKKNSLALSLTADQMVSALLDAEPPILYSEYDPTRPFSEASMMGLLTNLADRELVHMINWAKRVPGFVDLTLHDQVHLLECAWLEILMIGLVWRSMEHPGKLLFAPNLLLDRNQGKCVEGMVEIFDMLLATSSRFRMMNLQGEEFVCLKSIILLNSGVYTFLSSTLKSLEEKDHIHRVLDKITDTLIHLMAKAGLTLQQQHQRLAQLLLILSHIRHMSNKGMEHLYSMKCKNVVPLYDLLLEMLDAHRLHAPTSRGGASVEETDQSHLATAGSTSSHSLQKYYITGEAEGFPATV

CS(=O)(=O)NCC[C@H](NC(=O)c1cncc2c1cnn2-c1ccc(F)cc1)c1ccnc(S(C)(=O)=O)c1 [BI 9307]
inactive: residual activity [1] 100% | residual activity [2] 100% | residual activity [3] 100% | inhibition [4] -4.31% | residual activity [5] 100% | residual activity [6] 82% | residual activity [7] 100% | residual activity [8] 100%

CS(=O)(=O)c1cc(C2(NC(=O)c3cncc4c3cnn4-c3ccc(F)cc3)CC2)ccn1 [BI 639667]
inactive: residual activity [9] 99% | residual activity [10] 82% | residual activity [11] 97% | residual activity [12] 101% | residual activity [13] 100% | residual activity [14] 90% | residual activity [15] 89% | residual activity [16] 97% | residual activity [17] 90% | residual activity [18] 95% | residual activity [19] 88% | residual activity [20] 81% | residual activity [21] 89% | residual activity [23] 79% | residual activity [24] 91% | residual activity [25] 105% | residual activity [26] 105% | residual activity [27] 55% | residual activity [28] 98% | residual activity [29] 100%
active: residual activity [22] 28%
104% (not active): activity at 10 µM (hERG (KCNH2))
